Test results taken from PMC8766756, “Insights on Cancer Cell Inhibition, Subcellular Activities, and Kinase Profile of Phenylacetamides Pending 1H-Imidazol-5-One Variants” (Frontiers in Pharmacology, 2022).
Values joined by “and” are separate entries in the source; they are usually repeats but may differ in a detail not shown here. Equal values may be shown once.

Experiments:
Assay in all cases: PamChip tyrosine kinase microarray
Type in all cases: biochemical
Conditions in all cases: 0.1 µM, HL60 lysate
[1] = target: T1, DDR1 (Q08345) (Homo sapiens, UniProt Q08345)
T1 construct: purchased PamGene (PamChip PTK array, Upstream Kinase Analysis)
How it was run: (§1)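 HL60 (AML) cell lysate was spiked with compound at 0.001, 0.01, 0.1, 1, 10 and 50 µM, or 2% v/v DMSO as control, then profiled in technical replicates on a tyrosine kinase peptide array of 196 phosphosites. Kinase activity was inferred from peptide-set changes using an upstream kinase tool.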

[2] = target: T2, ITK (Q08881) (Homo sapiens, UniProt Q08881)
T2 construct: purchased PamGene (PamChip PTK array, Upstream Kinase Analysis)
T2 sequence (Q08881 1-620): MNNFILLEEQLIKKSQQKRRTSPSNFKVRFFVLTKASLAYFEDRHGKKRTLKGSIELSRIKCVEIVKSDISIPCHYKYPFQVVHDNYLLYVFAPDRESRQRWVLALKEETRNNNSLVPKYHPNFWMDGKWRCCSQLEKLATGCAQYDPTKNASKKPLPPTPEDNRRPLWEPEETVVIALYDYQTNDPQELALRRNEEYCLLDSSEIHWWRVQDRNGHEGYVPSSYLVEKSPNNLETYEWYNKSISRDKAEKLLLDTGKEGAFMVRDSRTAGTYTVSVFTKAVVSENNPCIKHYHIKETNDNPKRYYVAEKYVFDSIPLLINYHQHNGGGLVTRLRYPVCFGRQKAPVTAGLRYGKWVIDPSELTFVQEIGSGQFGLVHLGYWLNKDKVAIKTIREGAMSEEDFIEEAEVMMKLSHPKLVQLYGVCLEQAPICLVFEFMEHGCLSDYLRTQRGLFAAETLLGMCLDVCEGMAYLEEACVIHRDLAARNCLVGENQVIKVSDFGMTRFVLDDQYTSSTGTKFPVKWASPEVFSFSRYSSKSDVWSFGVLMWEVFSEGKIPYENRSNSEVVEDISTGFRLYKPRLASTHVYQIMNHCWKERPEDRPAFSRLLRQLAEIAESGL
How it was run: as §1

[3] = target: T3, FLT4 (P35916) (Homo sapiens, UniProt P35916)
T3 construct: purchased PamGene (PamChip PTK array, Upstream Kinase Analysis)
How it was run: as §1

[4] = target: T4, EphA1 (P21709) (Homo sapiens, UniProt P21709)
T4 construct: purchased PamGene (PamChip PTK array, Upstream Kinase Analysis)
T4 sequence (P21709 26-976): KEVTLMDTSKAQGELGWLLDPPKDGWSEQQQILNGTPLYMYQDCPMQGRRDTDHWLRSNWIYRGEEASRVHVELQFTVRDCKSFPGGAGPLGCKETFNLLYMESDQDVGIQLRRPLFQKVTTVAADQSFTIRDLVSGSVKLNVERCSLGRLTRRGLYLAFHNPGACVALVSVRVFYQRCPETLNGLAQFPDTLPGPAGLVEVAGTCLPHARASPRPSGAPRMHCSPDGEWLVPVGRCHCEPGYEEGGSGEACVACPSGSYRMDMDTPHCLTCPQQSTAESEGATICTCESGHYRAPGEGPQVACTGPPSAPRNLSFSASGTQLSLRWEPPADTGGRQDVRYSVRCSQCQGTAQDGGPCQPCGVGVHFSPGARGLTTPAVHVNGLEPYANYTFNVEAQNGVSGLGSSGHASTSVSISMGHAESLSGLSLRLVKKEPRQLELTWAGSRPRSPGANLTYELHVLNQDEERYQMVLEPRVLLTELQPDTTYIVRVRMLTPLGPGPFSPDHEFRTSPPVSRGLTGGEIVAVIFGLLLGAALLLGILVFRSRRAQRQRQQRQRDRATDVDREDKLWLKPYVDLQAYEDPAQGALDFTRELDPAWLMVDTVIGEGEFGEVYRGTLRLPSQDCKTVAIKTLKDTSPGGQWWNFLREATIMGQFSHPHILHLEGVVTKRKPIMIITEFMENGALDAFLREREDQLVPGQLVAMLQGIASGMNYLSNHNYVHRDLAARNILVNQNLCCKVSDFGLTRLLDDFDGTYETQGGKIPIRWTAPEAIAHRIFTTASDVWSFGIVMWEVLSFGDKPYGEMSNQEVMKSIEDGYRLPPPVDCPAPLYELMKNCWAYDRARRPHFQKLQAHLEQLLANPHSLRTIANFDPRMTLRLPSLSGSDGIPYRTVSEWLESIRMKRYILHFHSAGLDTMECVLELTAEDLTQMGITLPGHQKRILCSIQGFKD
How it was run: as §1

[5] = target: T5, SRM (Q9H3Y6) (Homo sapiens, UniProt Q9H3Y6)
T5 construct: purchased PamGene (PamChip PTK array, Upstream Kinase Analysis)
How it was run: as §1

T5 sequence (Q9H3Y6 whole entry): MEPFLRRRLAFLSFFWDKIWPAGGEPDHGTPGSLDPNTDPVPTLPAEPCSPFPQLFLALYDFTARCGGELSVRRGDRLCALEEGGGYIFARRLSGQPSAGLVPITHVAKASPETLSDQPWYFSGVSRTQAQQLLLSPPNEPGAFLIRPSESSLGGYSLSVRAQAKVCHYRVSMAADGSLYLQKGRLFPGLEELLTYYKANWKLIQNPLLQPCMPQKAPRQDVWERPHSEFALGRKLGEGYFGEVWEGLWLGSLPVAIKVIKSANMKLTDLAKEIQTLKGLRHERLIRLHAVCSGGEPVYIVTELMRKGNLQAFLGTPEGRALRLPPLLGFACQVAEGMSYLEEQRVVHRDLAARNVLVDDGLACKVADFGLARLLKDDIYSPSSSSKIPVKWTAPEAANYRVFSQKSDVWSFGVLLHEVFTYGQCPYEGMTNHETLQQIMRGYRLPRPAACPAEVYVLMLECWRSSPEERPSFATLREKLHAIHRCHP
T3 sequence (P35916 25-1363): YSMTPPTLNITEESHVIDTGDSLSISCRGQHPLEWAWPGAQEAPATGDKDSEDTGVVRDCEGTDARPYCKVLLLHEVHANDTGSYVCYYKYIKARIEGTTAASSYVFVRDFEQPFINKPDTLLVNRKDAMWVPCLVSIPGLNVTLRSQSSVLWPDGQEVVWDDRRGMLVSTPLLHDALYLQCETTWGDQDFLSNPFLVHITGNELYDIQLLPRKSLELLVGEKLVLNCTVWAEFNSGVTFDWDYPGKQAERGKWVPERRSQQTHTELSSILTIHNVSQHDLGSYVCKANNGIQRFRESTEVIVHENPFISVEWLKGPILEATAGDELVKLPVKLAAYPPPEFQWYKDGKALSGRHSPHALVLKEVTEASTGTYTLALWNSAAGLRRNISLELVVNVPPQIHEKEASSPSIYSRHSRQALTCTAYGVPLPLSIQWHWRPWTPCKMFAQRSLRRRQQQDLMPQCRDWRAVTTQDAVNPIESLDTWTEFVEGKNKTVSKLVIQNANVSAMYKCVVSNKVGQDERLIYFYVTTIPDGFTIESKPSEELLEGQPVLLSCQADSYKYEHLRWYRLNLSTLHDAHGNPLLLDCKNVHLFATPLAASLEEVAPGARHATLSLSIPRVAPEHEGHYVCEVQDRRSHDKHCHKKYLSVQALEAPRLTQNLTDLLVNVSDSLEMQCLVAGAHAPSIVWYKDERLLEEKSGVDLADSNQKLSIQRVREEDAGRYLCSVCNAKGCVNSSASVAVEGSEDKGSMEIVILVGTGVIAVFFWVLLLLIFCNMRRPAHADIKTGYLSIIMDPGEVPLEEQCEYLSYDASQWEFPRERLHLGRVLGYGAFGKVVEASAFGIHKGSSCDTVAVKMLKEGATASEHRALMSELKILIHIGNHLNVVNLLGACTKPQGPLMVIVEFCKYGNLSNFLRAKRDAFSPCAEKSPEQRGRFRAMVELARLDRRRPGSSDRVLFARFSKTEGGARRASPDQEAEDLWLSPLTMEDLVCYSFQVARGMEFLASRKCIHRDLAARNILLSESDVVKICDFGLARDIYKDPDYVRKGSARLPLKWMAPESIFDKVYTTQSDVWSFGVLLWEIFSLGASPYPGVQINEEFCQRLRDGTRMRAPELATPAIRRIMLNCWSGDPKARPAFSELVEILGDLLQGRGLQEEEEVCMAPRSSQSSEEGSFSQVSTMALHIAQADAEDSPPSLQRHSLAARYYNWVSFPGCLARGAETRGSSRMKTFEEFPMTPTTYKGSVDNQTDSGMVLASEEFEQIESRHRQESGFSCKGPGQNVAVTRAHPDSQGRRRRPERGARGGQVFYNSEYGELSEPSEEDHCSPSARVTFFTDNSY
T1 sequence (Q08345 19-913): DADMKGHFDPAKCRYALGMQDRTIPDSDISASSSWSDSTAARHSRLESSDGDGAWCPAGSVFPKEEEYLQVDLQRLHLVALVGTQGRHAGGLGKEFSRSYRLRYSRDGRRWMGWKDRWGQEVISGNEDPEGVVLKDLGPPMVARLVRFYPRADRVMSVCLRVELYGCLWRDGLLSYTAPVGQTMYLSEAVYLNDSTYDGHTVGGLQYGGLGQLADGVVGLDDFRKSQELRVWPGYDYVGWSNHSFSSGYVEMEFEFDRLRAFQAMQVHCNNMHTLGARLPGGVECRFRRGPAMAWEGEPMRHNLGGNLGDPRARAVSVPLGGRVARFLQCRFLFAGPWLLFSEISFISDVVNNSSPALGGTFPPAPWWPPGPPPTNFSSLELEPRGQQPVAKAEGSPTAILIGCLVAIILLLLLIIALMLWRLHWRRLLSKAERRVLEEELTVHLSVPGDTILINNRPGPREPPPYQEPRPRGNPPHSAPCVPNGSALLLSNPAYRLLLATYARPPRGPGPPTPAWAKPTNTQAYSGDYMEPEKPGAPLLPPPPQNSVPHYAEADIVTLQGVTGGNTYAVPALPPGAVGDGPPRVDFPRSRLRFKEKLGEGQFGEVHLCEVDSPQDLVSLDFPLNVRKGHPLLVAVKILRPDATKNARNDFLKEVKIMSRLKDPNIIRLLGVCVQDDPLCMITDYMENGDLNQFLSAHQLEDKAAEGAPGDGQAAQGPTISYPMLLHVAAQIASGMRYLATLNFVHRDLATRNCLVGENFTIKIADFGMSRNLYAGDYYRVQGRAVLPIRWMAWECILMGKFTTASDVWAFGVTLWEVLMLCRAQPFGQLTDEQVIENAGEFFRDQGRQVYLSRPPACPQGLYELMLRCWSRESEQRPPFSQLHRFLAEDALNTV

**Q.** `COc1ccc(/C=C2\N=C(C)N(c3ccc(CC(=O)NCc4ccccc4)cc3)C2=O)cc1` [Compound 4c, (Z)-N-Benzyl-2-(4-(4-(4-methoxybenzylidene)-2-methyl-5-oxo-4,5-dihydro-1H-imidazol-1-yl)phenyl)acetamide] was tested. Which “Mean Final score (Kinase score)” value [1] did it give?
**A.** 2.262

**Q.** What about the “Mean Kinase Statistic” value [1] of the same molecule?
**A.** -1.216

**Q.** And the “Mean Significance Score” value [1]?
**A.** 1.955

**Q.** What about the “Mean Specificity Score” value [1] of the same molecule?
**A.** 0.3662

**Q.** And the “Mean Significance Score” value [2]?
**A.** 2.048

**Q.** And the “Mean Specificity Score” value [2]?
**A.** 2.074

**Q.** What about the “Mean Final score (Kinase score)” value ([2]; listed as KIM-161) of the same molecule?
**A.** 3.95 and 3.951

**Q.** And the “Mean Significance Score” value [3]?
**A.** 2.048

**Q.** And the “Mean Specificity Score” value [3]?
**A.** 1.142

**Q.** What about the “Mean Final score (Kinase score)” value ([3]; listed as KIM-161) of the same molecule?
**A.** 3.15 and 3.152

**Q.** What about the “Mean Final score (Kinase score)” value [4] of the same molecule?
**A.** 2.326

**Q.** And the “Mean Kinase Statistic” value [4]?
**A.** -1.184

**Q.** What about the “Mean Significance Score” value [4] of the same molecule?
**A.** 1.983

**Q.** What about the “Mean Specificity Score” value [4] of the same molecule?
**A.** 0.3263

**Q.** What about the “Mean Significance Score” value [5] of the same molecule?
**A.** 2.048

**Q.** What about the “Mean Specificity Score” value [5] of the same molecule?
**A.** 1.961

**Q.** What about the “Mean Final score (Kinase score)” value ([5]; listed as KIM-161) of the same molecule?
**A.** 4.1 and 4.097
